Consider 27 compounds from patent publication US10189854B2, “Substituted pyrimidine compounds” (Grünenthal GmbH, priority 2014, dated 2019).

A value given as a limit tells only on which side of the number the result lay.

human PDE4B1, sequence (Q07343 whole entry): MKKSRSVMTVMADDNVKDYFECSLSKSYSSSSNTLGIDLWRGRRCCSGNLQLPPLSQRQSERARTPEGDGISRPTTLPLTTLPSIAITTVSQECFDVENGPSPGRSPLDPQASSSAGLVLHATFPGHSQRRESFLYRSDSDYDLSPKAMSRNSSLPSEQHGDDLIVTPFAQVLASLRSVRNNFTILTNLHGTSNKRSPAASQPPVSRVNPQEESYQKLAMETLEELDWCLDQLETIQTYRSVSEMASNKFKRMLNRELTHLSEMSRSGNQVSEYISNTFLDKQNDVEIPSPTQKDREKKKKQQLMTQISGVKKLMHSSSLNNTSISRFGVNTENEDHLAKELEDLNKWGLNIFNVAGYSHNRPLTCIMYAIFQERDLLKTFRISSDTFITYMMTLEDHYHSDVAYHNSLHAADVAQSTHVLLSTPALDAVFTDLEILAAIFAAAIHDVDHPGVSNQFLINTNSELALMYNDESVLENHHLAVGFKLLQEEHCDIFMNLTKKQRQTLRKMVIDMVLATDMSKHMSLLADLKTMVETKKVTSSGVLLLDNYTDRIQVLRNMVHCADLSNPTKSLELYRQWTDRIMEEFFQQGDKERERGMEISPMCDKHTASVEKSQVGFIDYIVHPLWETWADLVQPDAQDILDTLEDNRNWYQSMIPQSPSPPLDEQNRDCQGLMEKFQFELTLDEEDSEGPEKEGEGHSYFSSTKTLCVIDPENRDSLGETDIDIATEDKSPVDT

The assay deals with human PDE4B1 (Homo sapiens (Human), UniProt Q07343). Nature of the assay: cAMP HTRF assay to determine the activity of hPDE4B1. The note with it: IC50 inhibition of PDE4B; human recombinant PDE4B1, cAMP HTRF assay. It is filed as biochemical. On the procedure:
Biological Testing cAMP HTRF® Assay to Determine the Activity of hPDE4B1
The inhibiting effect of the compounds on the enzyme activity of human PDE4B1 was measured by the quantification of 5′-adenosine monophosphate (5′-AMP), which is formed from 3′,5′-cyclic adenosine monophosphate (cAMP). Human recombinant enzyme, expressed in Sf9 cells, and the HTRF (homogeneous time-resolved fluorescence) detection method were used in the assay.
The test compound or water (control) was mixed with the human recombinant PDE4B1 enzyme (4.8 U) in a buffer consisting of 44.4 mM tris-HCl, 5.28 mM MgCl2, 2.64 mM DTT and 0.044% Tween 20 (pH 7.8). After adding the cAMP enzyme substrate (final concentration 40 nM), the mixture was incubated for 30 minutes at room temperature. Then a fluorescence acceptor (Dye2 marked with cAMP), a fluorescence donor (anti-cAMP antibody marked with a europium cryptate) and the non-specific phosphodiesterase inhibitor IBMX (3-isobutyl-1-methylxanthine; final concentration 1 mM) were added. After 60 min the fluorescence transfer, which correlates with the amount of remaining cAMP, was measured with a microplate reader (Rubystar, BMG) at λex=337 nm, λem=620 nm and λem=665 nm. The enzyme activity was calculated from the quotient formed from the measured signal at 665 nm and that at 620 nm. The result was expressed as the percentage inhibition of enzyme activity of the control (without PDE4 inhibitor). The enzyme was omitted for measurement of the basal control.
[N. Saldou et al., Comparison of recombinant human PDE4 isoforms: interaction with substrate and inhibitors, Cell. Signal. Vol. 10, No. 6, 427-440, 1998]. Several compounds according to the invention are tested in the above-described assay.
For `CS(=O)(=O)c1ccc(-c2cnc(N3CC4(CC4)c4ccc(C(=O)N5CCOCC5)cc43)nc2)c(F)c1` [Compound 29, [1-[5-(2-Fluoro-4-methylsulfonyl-phenyl)-pyrimidin-2-yl]-spiro[1,2-dihydro-indole-3,1′-cyclopropane]-6-yl]morpholin-4-yl-methanone], the IC50 was less than 0.1 µM.
Regarding `N#Cc1ccc(-c2cnc(N3CC4(CC4)c4ccc(C(=O)N5CCOCC5)cc43)nc2)c(F)c1` [Compound 30, 3-Fluoro-4-[2-[6-(morpholine-4-carbonyl)-spiro[1,2-dihydro-indole-3,1′-cyclopropane]-1-yl]-pyrimidin-5-yl]-benzonitrile], the 50% inhibitory concentration (IC50) was 0.1 to 1 µM.
For `COc1ccccc1-c1cnc(N2CC3(CC3)c3ccc(C(=O)N4CCOCC4)cc32)nc1` [Compound 31, [1-[5-(2-Methoxyphenyl)-pyrimidin-2-yl]-spiro[1,2-dihydro-indole-3,1′-cyclopropane]-6-yl]-morpholin-4-yl-methanone], the IC50 was less than 0.1 µM.
As for `NC(=O)c1cccc(F)c1-c1cnc(N2CC3(CC3)c3ccc(C(=O)N4CCOCC4)cc32)nc1` [Compound 32, 3-Fluoro-2-[2-[6-(morpholine-4-carbonyl)-spiro[1,2-dihydro-indole-3,1′-cyclopropane]-1-yl]-pyrimidin-5-yl]-benzamide], the IC50 is 0.1 to 1 µM.
For the compound `O=C(c1ccc2c(c1)N(c1ncc(-c3ccccc3F)cn1)CC21CC1)N1CCN(CCO)CC1` [Compound 34, [1-[5-(2-Fluorophenyl)-pyrimidin-2-yl]-spiro[1,2-dihydro-indole-3,1′-cyclopropane]-6-yl]-[4-(2-hydroxy-ethyl)-piperazin-1-yl]-methanone], the 50% inhibitory concentration (IC50) was less than 0.1 µM.
Regarding `NC(=O)c1ccc(F)c(-c2cnc(N3CC4(CC4)c4ccc(C(=O)N5CCOCC5)cc43)nc2)c1` [Compound 35, 4-Fluoro-3-[2-[6-(morpholine-4-carbonyl)-spiro[1,2-dihydro-indole-3,1′-cyclopropane]-1-yl]-pyrimidni-5-yl]-benzamide], the IC50 was less than 0.1 µM.
Under `O=C(c1ccc2c(c1)N(c1ncc(-c3ccccc3F)cn1)CC21CC1)N1CC(O)C1` [Compound 36, [1-[5-(2-Fluorophenyl)-pyrimidin-2-yl]-spiro[1,2-dihydro-indole-3,1′-cyclopropane]-6-yl]-(3-hydroxy-azetidin-1-yl)-methanone] stands 0.1 to 1 µM.
For `CN1CCN(C(=O)c2ccc3c(c2)N(c2ncc(-c4ccccc4F)cn2)CC32CC2)CC1=O` [Compound 38, 4-[1-[5-(2-Fluorophenyl)-pyrimidin-2-yl]spiro[1,2-dihydro-indole-3,1′-cyclopropane]-6-carbonyl]-1-methyl-piperazin-2-one], the concentration for half-maximal inhibition (IC50) was less than 0.1 µM.
Under `O=C(c1ccc2c(c1)N(c1ncc(-c3ccccc3C(F)F)cn1)CC21CC1)N1CCOCC1` [Compound 39, [1-[5-[2-(Difluoro-methyl)-phenyl]-pyrimidin-2-yl]spiro[1,2-dihydro-indole-3,1′-cyclopropane]-6-yl]-morpholin-4-yl-methanone] stands 0.1 to 1 µM.
Under `N[C@@H]1CCN(C(=O)c2ccc3c(c2)N(c2ncc(-c4ccccc4F)cn2)CC32CC2)C1` [Compound 40, [(3R)-3-Amino-pyrrolidin-1-yl]-[1-[5-(2-fluorophenyl)-pyrimidin-2-yl]-spiro[1,2-dihydro-indole-3,1′-cyclopropane]-6-yl]-methanone] stands less than 0.1 µM; under `CN(CCN)C(=O)c1ccc2c(c1)N(c1ncc(-c3ccccc3F)cn1)CC21CC1` [Compound 41, N-(2-Amino-ethyl)-1-[5-(2-fluorophenyl)-pyrimidin-2-yl]-N-methyl-spiro[1,2-dihydro-indole-3,1′-cyclopropane]-6-carboxylic acid amide], less than 0.1 µM.
To `CS(=O)(=O)c1ccc(F)c(-c2cnc(N3CC4(CC4)c4ccc(C(=O)N5CCOCC5)cc43)nc2)c1` [Compound 42, [1-[5-(2-Fluoro-5-methylsulfonyl-phenyl)-pyrimidin-2-yl]-spiro[1,2-dihydro-indole-3,1′-cyclopropane]-6-yl]-morpholin-4-yl-methanone] belongs less than 0.1 µM; to `O=C(c1ccc2c(c1)N(c1ncc(-c3ccc(F)cc3)cn1)CC21CC1)N1CCOCC1` [Compound 43, [1-[5-(4-Fluorophenyl)-pyrimidin-2-yl]-spiro[1,2-dihydro-indole-3,1′-cyclopropane]-6-yl]-morpholin-4-yl-methanone], less than 0.1 µM; to `O=C(c1ccc2c(c1)N(c1ncc(-c3ccccc3F)cn1)CC21CC1)N1CC[C@@H](O)C1` [Compound 44, [1-[5-(2-Fluorophenyl)-pyrimidin-2-yl]-spiro[1,2-dihydro-indole-3,1′-cyclopropane]-6-yl]-[(3R)-3-hydroxy-pyrrolidin-1-yl]-methanone], less than 0.1 µM.
As for `O=C(c1ccc2c(c1)N(c1ncc(-c3ccccc3F)cn1)CC21CC1)N1CC[C@H](O)C1` [Compound 45, [1-[5-(2-Fluorophenyl)-pyrimidin-2-yl]-spiro[1,2-dihydro-indole-3,1′-cyclopropane]-6-yl]-[(3S)-3-hydroxy-pyrrolidin-1-yl]-methanone], the half-inhibitory concentration (IC50) fell in the range of 0.1 to 1 µM.
Consider `CN(C(=O)c1ccc2c(c1)N(c1ncc(-c3ccccc3F)cn1)CC21CC1)C1CC1` [Compound 46, N-Cyclopropyl-1-[5-(2-fluorophenyl)-pyrimidin-2-yl]-N-methyl-spiro[1,2-dihydro-indole-3,1′-cyclopropane]-6-carboxylic acid amide], for which the IC50 is 0.1 to 1 µM.
Turning to `CCN(CC)C(=O)c1ccc2c(c1)N(c1ncc(-c3ccccc3F)cn1)CC21CC1` [Compound 47, N,N-Diethyl-1-[5-(2-fluorophenyl)-pyrimidin-2-yl]-spiro[1,2-dihydro-indole-3,1′-cyclopropane]-6-carboxylic acid amide], the IC50 was 0.1 to 1 µM.
With `COc1cccc(-c2cnc(N3CC4(CC4)c4ccc(C(=O)N5CCOCC5)cc43)nc2)c1` [Compound 48, [1-[5-(3-Methoxyphenyl)-pyrimidin-2-yl]-spiro[1,2-dihydro-indole-3,1′-cyclopropane]-6-yl]-morpholin-4-yl-methanone], the half-maximal inhibitory concentration (IC50) was less than 0.1 µM.
In the case of `O=C(c1ccc2c(c1)N(c1ncc(-c3ccccc3)cn1)CC21CC1)N1CCNCC1` [Compound 49, [1-(5-Phenyl-pyrimidin-2-yl)-spiro[1,2-dihydro-indole-3,1′-cyclopropane]-6-yl]-piperazin-1-yl-methanone], the half-maximal inhibitory concentration (IC50) is less than 0.1 µM.
For the compound `O=C(c1ccc2c(c1)N(c1ncc(-c3cc(F)cc(F)c3)cn1)CC21CC1)N1CCOCC1` [Compound 50, [1-[5-(3,5-Difluoro-phenyl)-pyrimidin-2-yl]-spiro[1,2-dihydro-indole-3,1′-cyclopropane]-6-yl]-morpholin-4-ylmethanone], the concentration for half-maximal inhibition (IC50) is less than 0.1 µM.
On to `O=C(c1ccc2c(c1)N(c1ncc(-c3cccc(Cl)c3)cn1)CC21CC1)N1CCOCC1` [Compound 51, [1-[5-(3-Chlorophenyl)-pyrimidin-2-yl]-spiro[1,2-dihydro-indole-3,1′-cyclopropane]-6-yl]-morpholin-4-yl-methanone], for which the IC50 is 0.1 to 1 µM.
Take `Cc1ccc(F)c(-c2cnc(N3CC4(CC4)c4ccc(C(=O)N5CCOCC5)cc43)nc2)c1` [Compound 52, [1-[5-(2-Fluoro-5-methyl-phenyl)-pyrimidin-2-yl]-spiro[1,2-dihydro-indole-3,1′-cyclopropane]-6-yl]-morpholin-4-yl-methanone]: the IC50 is less than 0.1 µM.
In the case of `O=C(c1ccc2c(c1)N(c1ncc(-c3ccc(F)c(F)c3)cn1)CC21CC1)N1CCOCC1` [Compound 53, [1-[5-(3,4-Difluoro-phenyl)-pyrimidin-2-yl]-spiro[1,2-dihydro-indole-3,1′-cyclopropane]-6-yl]-morpholin-4-yl-methanone], the IC50 lay within 0.1 to 1 µM.
To `NC(=O)c1cccc(-c2cnc(N3CC4(CC4)c4ccc(C(=O)N5CCOCC5)cc43)nc2)c1` [Compound 54, 3-[2-[6-(Morpholine-4-carbonyl)-spiro[1,2-dihydro-indole-3,1′-cyclopropane]-1-yl]-pyrimidin-5-yl]-benzamide] belongs less than 0.1 µM; to `O=C1CN(C(=O)c2ccc3c(c2)N(c2ncc(-c4ccccc4)cn2)CC32CC2)CCN1` [Compound 55, 4-[1-(5-Phenyl-pyrimidin-2-yl)-spiro[1,2-dihydro-indole-3,1′-cyclopropane]-6-carbonyl]-piperazin-2-one], less than 0.1 µM; to `N#Cc1cccc(-c2cnc(N3CC4(CC4)c4ccc(C(=O)N5CCOCC5)cc43)nc2)c1` [Compound 56, 3-[2-[6-(Morpholine-4-carbonyl)-spiro[1,2-dihydro-indole-3,1′-cyclopropane]-1-yl]-pyrimidin-5-yl]-benzonitrile], less than 0.1 µM.
Regarding `O=C(c1ccc2c(c1)N(c1ncc(-c3cccc(F)c3)cn1)CC21CC1)N1CCOCC1` [Compound 57, [1-[5-(3-Fluorophenyl)-pyrimidin-2-yl]-spiro[1,2-dihydro-indole-3,1′-cyclopropane]-6-yl]-morpholin-4-yl-methanone], the IC50 is less than 0.1 µM.
